What follows are molecules tested against T1, His-tagged full-length RSK2 (RPS6KA3) (Homo sapiens, UniProt P51812) (assay: RSK2 Omnia Assay for compound IC50 determination). Conditions: ATP 15 μM, n=2, read-out: Mean RSK2 Biochem IC50.
T1 construct: His-tagged full-length RSK2 (RPS6KA3, Invitrogen PV3323); His; purchased Invitrogen PV3323
Format: biochemical
Method in brief: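 Continuous fluorescence assay (ex 360/em 485 nm) of SOX-peptide (Omnia ST Peptide 6, 5 μM) phosphorylation with ATP 15 μM (Km 16.3 μM). Enzyme was […], in pH 7.5 HEPES/MgCl2 buffer with 1% DMSO. IC50 came from 11-point threefold dilutions ([…]) by four-parameter fit of initial slopes, in duplicate; Ki by Cheng-Prusoff assuming competitive inhibition.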

T1 sequence (P51812 whole entry): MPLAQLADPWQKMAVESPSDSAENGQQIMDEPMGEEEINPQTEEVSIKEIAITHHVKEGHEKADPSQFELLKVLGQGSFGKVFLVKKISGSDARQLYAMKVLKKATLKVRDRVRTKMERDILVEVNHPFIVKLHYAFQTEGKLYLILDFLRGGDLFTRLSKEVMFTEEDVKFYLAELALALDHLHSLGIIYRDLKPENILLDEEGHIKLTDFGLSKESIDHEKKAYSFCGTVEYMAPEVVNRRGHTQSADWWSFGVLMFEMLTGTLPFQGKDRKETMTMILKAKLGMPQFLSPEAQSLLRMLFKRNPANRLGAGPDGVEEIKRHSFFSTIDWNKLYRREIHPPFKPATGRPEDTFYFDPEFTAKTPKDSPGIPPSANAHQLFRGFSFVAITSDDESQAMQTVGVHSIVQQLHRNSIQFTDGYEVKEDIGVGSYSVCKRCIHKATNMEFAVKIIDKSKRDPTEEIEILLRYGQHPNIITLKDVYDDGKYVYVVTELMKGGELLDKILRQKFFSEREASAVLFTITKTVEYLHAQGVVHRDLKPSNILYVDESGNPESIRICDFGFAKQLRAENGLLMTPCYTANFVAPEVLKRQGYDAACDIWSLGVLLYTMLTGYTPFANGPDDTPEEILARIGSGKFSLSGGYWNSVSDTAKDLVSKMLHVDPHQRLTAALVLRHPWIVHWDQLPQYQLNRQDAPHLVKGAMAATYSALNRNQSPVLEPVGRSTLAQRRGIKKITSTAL

Row | IC50 | Structure (SMILES)
1 | ≤ 100 nM | C[C@@H]1C(=O)N(c2cccc(C#N)c2)c2cnc(Nc3ccc4[nH]c(=O)oc4c3)nc2N1C1CCC(F)(F)CC1 [compound 266, 3-[(7R)-8-(4,4-difluorocyclohexyl)-7-methyl-6-oxo-2-[(2-oxo-2,3-dihydro-1,3-benzoxazol-6-yl)amino]-7,8-dihydropteridin-5(6H)-yl]benzonitrile]
2 | ≤ 100 nM | N#Cc1cccc(N2C(=O)[C@@H](CF)N(C3CCCC3)c3nc(Nc4ccc5[nH]ncc5c4)ncc32)c1 [Example 222, 3-[(7S)-8-cyclopentyl-7-(fluoromethyl)-2-(1H-indazol-5-ylamino)-6-oxo-7,8-dihydropteridin-5(6H)-yl]benzonitrile]
3 | ≤ 100 nM | C[C@@H]1C(=O)N(c2cccnc2)c2cnc(Nc3cc(F)c4[nH]ncc4c3)nc2N1C1CCCCC1 [compound 135, (7R)-8-cyclohexyl-2-[(7-fluoro-1H-indazol-5-yl)amino]-7-methyl-5-(pyridin-3-yl)-7,8-dihydropteridin-6(5H)-one]
4 | ≤ 100 nM | C[C@@H]1C(=O)N(c2ccc(F)cc2)c2cnc(Nc3ccc4[nH]ncc4c3)nc2N1C1CCCCC1 [Example 24, (7R)-8-cyclohexyl-5-(4-fluorophenyl)-2-(1H-indazol-5-ylamino)-7-methyl-7,8-dihydropteridin-6(5H)-one]
5 | ≤ 100 nM | COc1ccc(N2C(=O)[C@@H](C)N(CCC(C)C)c3nc(Nc4cc(F)c5[nH]ncc5c4)ncc32)cc1OC [Example 85, (7R)-5-(3,4-dimethoxyphenyl)-2-[(7-fluoro-1H-indazol-5-yl)amino]-7-methyl-8-(3-methylbutyl)-7,8-dihydropteridin-6(5H)-one]
6 | ≤ 100 nM | COc1ccc(N2C(=O)[C@@H](C)N(C3CCCCC3)c3nc(Nc4ccc5[nH]ncc5c4)ncc32)cc1 [Example 26, (7R)-8-cyclohexyl-2-(1H-indazol-5-ylamino)-5-(4-methoxyphenyl)-7-methyl-7,8-dihydropteridin-6(5H)-one]
7 | ≤ 100 nM | C[C@@H]1C(=O)N(c2ccc(Cl)c(C#N)c2)c2cnc(Nc3ccc4[nH]ncc4c3)nc2N1C1CCCCC1 [compound 105, 2-chloro-5-[(7R)-8-cyclohexyl-2-(1H-indazol-5-ylamino)-7-methyl-6-oxo-7,8-dihydropteridin-5(6H)-yl]benzonitrile]
8 | ≤ 100 nM | C[C@@H]1C(=O)N(c2cccc(C#N)c2)c2cnc(Nc3cc(F)c4[nH]ncc4c3)nc2N1c1ccc(F)cc1 [compound 180]
9 | ≤ 100 nM | CC(C)Oc1ccc(N2C(=O)[C@@H](C)N(C3CCOCC3)c3nc(Nc4cc(F)c5[nH]c(=O)oc5c4)ncc32)cc1C#N [compound 205, 5-[(7R)-2-[(4-fluoro-2-oxo-2,3-dihydro-1,3-benzoxazol-6-yl)amino]-7-methyl-6-oxo-8-(tetrahydro-2H-pyran-4-yl)-7,8-dihydropteridin-5(6H)-yl]-2-(propan-2-yloxy)benzonitrile]
10 | 100 to 1000 nM | CC1C(=O)N(c2ccccc2)c2cnc(Nc3ccc4c(c3)CC(=O)N4)nc2N1c1ccccc1 (stereo not drawn) [compound 179]
11 | > 1000 nM | CC(C)CCN1c2nc(N[C@H]3CC[C@@H](O)CC3)ncc2N(c2ccccc2)C(=O)C1C (relative stereo) [Example 12, 2-[(cis-4-hydroxycyclohexyl)amino]-7-methyl-8-(3-methylbutyl)-5-phenyl-7,8-dihydropteridin-6(5H)-one]
12 | > 1000 nM | COc1cc2[nH]ncc2cc1Nc1ncc2c(n1)N(C1CCCCC1)[C@H](C)C(=O)N2c1cccc(C#N)c1 [compound 119, 3-[(7R)-8-cyclohexyl-2-[(6-methoxy-1H-indazol-5-yl)amino]-7-methyl-6-oxo-7,8-dihydropteridin-5(6H)-yl]benzonitrile]
13 | ≤ 100 nM | COc1ccc(N2C(=O)[C@@H](C)N(C3CCCCC3)c3nc(Nc4ccc5[nH]c(=O)oc5c4)ncc32)cc1OC [compound 150, (7R)-8-cyclohexyl-5-(3,4-dimethoxyphenyl)-7-methyl-2-[(2-oxo-2,3-dihydro-1,3-benzoxazol-6-yl)amino]-7,8-dihydropteridin-6(5H)-one]
14 | ≤ 100 nM | COc1ccc(N2C(=O)[C@@H](C)N([C@H]3CC[C@H](OC)CC3)c3nc(Nc4ccc5[nH]c(=O)oc5c4)ncc32)cc1C#N [compound 235, 2-methoxy-5-[(7R)-8-(trans-4-methoxycyclohexyl)-7-methyl-6-oxo-2-[(2-oxo-2,3-dihydro-1,3-benzoxazol-6-yl)amino]-7,8-dihydropteridin-5(6H)-yl]benzonitrile]
15 | ≤ 100 nM | COC(=O)c1ccc(N2C(=O)[C@@H](C)N(C3CCCCC3)c3nc(Nc4ccc5[nH]ncc5c4)ncc32)cc1 [Example 52, methyl 4-[(7R)-8-cyclohexyl-2-(1H-indazol-5-ylamino)-7-methyl-6-oxo-7,8-dihydropteridin-5(6H)-yl]benzoate]
16 | ≤ 100 nM | C[C@@H]1C(=O)N(c2cccc(C#N)c2)c2cnc(Nc3ccc4[nH]ncc4c3)nc2N1C1CCC(C)(C)CC1 [Example 207, 3-[(7R)-8-(4,4-dimethylcyclohexyl)-2-(1H-indazol-5-ylamino)-7-methyl-6-oxo-7,8-dihydropteridin-5(6H)-yl]benzonitrile]
17 | 100 to 1000 nM | C[C@@H]1C(=O)N(c2cccc(C#N)c2)c2cnc(Nc3ccc(C#N)cc3)nc2N1C1CCC(F)(F)CC1 [compound 274, 3-[(7R)-2-[(4-cyanophenyl)amino]-8-(4,4-difluorocyclohexyl)-7-methyl-6-oxo-7,8-dihydropteridin-5(6H)-yl]benzonitrile]
18 | ≤ 100 nM | C[C@@H]1C(=O)N(c2cccc(C#N)c2)c2cnc(Nc3ccc(C(=O)O)cc3)nc2N1C1CCCCC1 [compound 155, 4-{[(7R)-5-(3-cyanophenyl)-8-cyclohexyl-7-methyl-6-oxo-5,6,7,8-tetrahydropteridin-2-yl]amino}benzoic acid]
19 | ≤ 100 nM | CC[C@@H]1C(=O)N(c2cccc(C#N)c2)c2cnc(Nc3ccc4[nH]ncc4c3)nc2N1C1CCCC1 [compound 140, 3-[(7R)-8-cyclopentyl-7-ethyl-2-(1H-indazol-5-ylamino)-6-oxo-7,8-dihydropteridin-5(6H)-yl]benzonitrile]
20 | ≤ 100 nM | COc1ccc(N2C(=O)[C@@H](C)N(C3CCCCC3)c3nc(Nc4cc(F)c(O)c(F)c4)ncc32)cc1OC [compound 159]
21 | ≤ 100 nM | [2H]C1([2H])C(N2c3nc(Nc4cc(F)c5[nH]ncc5c4)ncc3N(c3cccnc3)C(=O)[C@H]2C)C([2H])([2H])C([2H])([2H])C([2H])([2H])C1([2H])[2H] [compound 301, (7R)-8-[(2,2,3,3,4,4,5,5,6,6-2H10)cyclohexyl]-2-[(7-fluoro-1H-indazol-5-yl)amino]-7-methyl-5-(pyridin-3-yl)-7,8-dihydropteridin-6(5H)-one]
22 | ≤ 100 nM | CC(C)CCN1c2nc(Nc3ccc4[nH]ncc4c3)ncc2N(c2ccccc2)C(=O)[C@H]1C [Example 16, (7R)-2-(1H-indazol-5-ylamino)-7-methyl-8-(3-methylbutyl)-5-phenyl-7,8-dihydropteridin-6(5H)-one]
23 | 100 to 1000 nM | C[C@@H]1C(=O)N(c2cccc(C#N)c2)c2cnc(Nc3ccc4sncc4c3)nc2N1C1CCCCC1 [compound 109, 3-[(7R)-2-(1,2-benzothiazol-5-ylamino)-8-cyclohexyl-7-methyl-6-oxo-7,8-dihydropteridin-5(6H)-yl]benzonitrile]
24 | ≤ 100 nM | C[C@@H]1C(=O)N(c2cccc(C#N)c2)c2cnc(Nc3ccc4[nH]ncc4c3)nc2N1CC1CCCC1 [Example 81, 3-[(7R)-8-(cyclopentylmethyl)-2-(1H-indazol-5-ylamino)-7-methyl-6-oxo-7,8-dihydropteridin-5(6H)-yl]benzonitrile]
25 | ≤ 100 nM | CC[C@@H]1C(=O)N(c2cccc(C#N)c2)c2cnc(Nc3ccc4[nH]nc(F)c4c3)nc2N1C1CCCCC1 [compound 295, 3-[(7R)-8-cyclohexyl-7-ethyl-2-[(3-fluoro-1H-indazol-5-yl)amino]-6-oxo-7,8-dihydropteridin-5(6H)-yl]benzonitrile]
26 | ≤ 100 nM | CC(C)Oc1ccc(N2C(=O)[C@@H](C)N(C3CCOCC3)c3nc(Nc4cnc5[nH]ncc5c4)ncc32)cc1C#N [compound 202, 5-[(7R)-7-methyl-6-oxo-2-(1H-pyrazolo[3,4-b]pyridin-5-ylamino)-8-(tetrahydro-2H-pyran-4-yl)-7,8-dihydropteridin-5(6H)-yl]-2-(propan-2-yloxy)benzonitrile]
27 | ≤ 100 nM | COc1ccc(N2C(=O)[C@@H](C)N(C3CCC(F)(F)CC3)c3nc(Nc4cc(F)c5[nH]ncc5c4)ncc32)cc1OC [compound 262, (7R)-8-(4,4-difluorocyclohexyl)-5-(3,4-dimethoxyphenyl)-2-[(7-fluoro-1H-indazol-5-yl)amino]-7-methyl-7,8-dihydropteridin-6(5H)-one]
28 | ≤ 100 nM | C[C@@H]1C(=O)N(c2ccc(N3CCN(C)CC3)c(C#N)c2)c2cnc(Nc3cnc4[nH]ncc4c3)nc2N1[C@H]1CC[C@H](C)CC1 [compound 252, 5-[(7R)-7-methyl-8-(trans-4-methylcyclohexyl)-6-oxo-2-(1H-pyrazolo[3,4-b]pyridin-5-ylamino)-7,8-dihydropteridin-5(6H)-yl]-2-(4-methylpiperazin-1-yl)benzonitrile]
29 | ≤ 100 nM | C[C@@H]1C(=O)N(c2ccc[n+]([O-])c2)c2cnc(Nc3cc(F)c4[nH]ncc4c3)nc2N1C1CCCCC1 [Example 303, (7R)-8-cyclohexyl-2-[(7-fluoro-1H-indazol-5-yl)amino]-7-methyl-5-(1-oxidopyridin-3-yl)-7,8-dihydropteridin-6(5H)-one]
30 | ≤ 100 nM | C[C@@H]1C(=O)N(c2ccc(N3CCN(C)CC3)nc2)c2cnc(Nc3cc(F)c4[nH]ncc4c3)nc2N1C1CCOCC1 [compound 193, (7R)-2-[(7-fluoro-1H-indazol-5-yl)amino]-7-methyl-5-[6-(4-methylpiperazin-1-yl)pyridin-3-yl]-8-(tetrahydro-2H-pyran-4-yl)-7,8-dihydropteridin-6(5H)-one]

From patent publication US9351974B2, “Substituted pteridinones for the treatment of cancer” (OSI Pharmaceuticals, LLC, priority 2011, dated 2016)
